How the values were obtained:
[1] = tested on: Apt1-3 (DNA, aptamer) CTGTTTGCTACGCAG; assay: exonuclease I/III digestion, SYBR Gold fluorescence; settings: 0.25 μM MNZ, 25 °C, aptamer varied
[2] = tested on: Apt1-3 (FAM) (DNA, aptamer) CTGTTTGCTACGCAG; assay: graphene oxide fluorescence assay; settings: aptamer 0-250 nM titrated against 1.5 μM MNZ, 2 h; abstract prints error 25.59
[3] = tested on: Apt0 (FAM) (DNA, aptamer) CTGTTTGGTAGGCAG; assay: graphene oxide fluorescence assay; settings: aptamer 0-250 nM titrated against 1.5 μM MNZ, 2 h
[4] = tested on: Apt8 (FAM) (DNA, aptamer) CTGTTTGCTAGGCAG; assay: graphene oxide fluorescence assay; settings: aptamer 0-250 nM titrated against 1.5 μM MNZ, 2 h
[5] = tested on: Apt11 (FAM) (DNA, aptamer) CTGTTTGGTACGCAG; assay: graphene oxide fluorescence assay; settings: aptamer 0-250 nM titrated against 1.5 μM MNZ, 2 h

binding [1]: yes
Kd [2]: 92.60 ± 25.58 nM
Kd [3]: 154.28 ± 51.87 nM
Kd [4]: 126.18 ± 41.91 nM
Kd [5]: 151.49 ± 56.08 nM
Compound: Cc1ncc([N+](=O)[O-])n1CCO

— publication PMC11327025 (2024)
